Test results as given in patent US10865222B2, “Neisseria gonorrhoeae therapeutic based on CMP-nonulosonate sugars” (priority 2014, dated 2020).

How the values were obtained:
Ng F62 (wildtype [WT]) = assay: BALB/c vaginal colonization model, Ng F62; format: in vivo, N. gonorrhoeae; conditions: 10 μg intravaginally daily
Procedure: FIG. 13. […] A and B. Efficacy of CMP-Leg5Ac7Ac against Ng F62. 17β-estradiol treated BALB/c mice were infected with i) Ng F62 (wildtype [WT]) and treated (CMP-Leg5Ac7Ac, 10 μg intravaginally, daily), ii) Ng F62 WT→saline (No treatment) or iii) Ng F62 Δlst (cannot sialylate LOS), untreated. Ng load in the vagina was enumerated daily. A. Time to clearance. B. Area under the curve (AUC; each point represents the AUC of CFU vs. time for each mouse). Horizontal bar, geometric mean. C and D. Efficacy of CMP-Leg5Ac7Ac vs ceftriaxone-resistant isolate H041. Time to clearance (C) and AUC analysis (D) are described above.
The efficacy of CMP-Leg5Ac7Ac against Ng was tested in the BALB/c vaginal colonization model (FIG. 13) (51). Three groups of 17β-estradiol treated BALB/c mice (10 mice/group) were infected as follows: i) WT F62→CMP-Leg5Ac7Ac (10 μg intravaginally daily), ii) WT F62→saline control (‘untreated’) and iii) F62 List (cannot sialylate LOS)→untreated.

[1] = format: physicochemical
From the text: Importantly, Neu5Ac9Az/Neu5Ac9Ac and Leg5Ac7Ac differ from Neu5Ac at carbon 9 and carbons 7 and 9, respectively. As well, Neu5Gc8Me differs from Neu5Gc at carbon 8. As such, carbons 7, 8 and 9 within the exocyclic moiety of nonulosonate sugars appear to play a critical role in the avoidance of serum mediated killing by N. gonorrhoeae, as evidenced by the enhanced serum-mediated killing with CMP-Neu5Ac9Az, CMP-Neu5Ac9Ac, CMP-Leg5Ac7Ac and CMP-Neu5Gc8Me, that was not observed with either CMP-Neu5Ac or CMP-Neu5Gc only feeding controls.

Row | Compound | Ng infection (time to clearance, AUC of CFU vs. time) (Ng F62 (wildtype [WT]); 17β-estradiol treated BALB/c mice, vs saline) | sensitivity to human complement of bacteria recovered directly from treated mice (Ng F62 (wildtype [WT]); BALB/c mice, not shown) | stability of the preparation [1]
1 | 5,7-diacetamido-3,5,7,9-tetradeoxy-D-glycero-D-galacto-nonulosonic acid [CMP-Leg5Ac7Ac] | significantly attenuated Ng infection | became sensitive to human complement | –
2 | CC(=O)N[C@H]1[C@H]([C@H](O)[C@H](O)COC(C)=O)OC(OP(=O)(O)OC[C@H]2O[C@@H](n3ccc(N)nc3=O)[C@H](O)[C@@H]2O)(C(=O)O)C[C@@H]1O (stereo partly drawn) [CMP-Neu5Ac9Ac, CMP-5-acetamido-9-O-acetyl-3,5-dideoxy-D-glycero-D-galacto-nonulosonic acid] | – | – | spontaneous breakdown of the 9OAc group
